Measurements reported in patent US20130217639A1, “COMPOUND FOR ACTIVATING NATURAL KILLER T CELLS AND PREPARING METHOD THEREOF” (NATIONAL TSING HUA UNIVERSITY, priority 2012, published 2013).
Entries after “also recorded” stand apart in the source; their conditions may differ.

Tested on: human Vα24+/Vβ11+ iNKT cells
Experiment: Stimulation of human Vα24+/Vβ11+ NKT cell populations in PBMC culture, flow cytometry
Format: cell-based
Details: PBMC from a normal healthy donor, 100 nM, 14 days of culture
Experimental: Peripheral blood mononuclear cells (PBMC) from a normal healthy donor were incubated with each individual compound at a final concentration of 100 nM. After 14 days of culture, NKT cell frequencies were determined by flow cytometry. NKT cell frequencies were defined as the percentage of Vα24+/V−β11+ cells among gated lymphocytes in the upper right (UR) corner for each case. Shown here are the profiles of PBMC harvested from 14-day cultures containing (a) vehicle alone (DMSO, UN), or (b) 100 nM of α-GalCer (KS), (c) analog 18 (DABB), or (d) analog 19 (DAGBB), as indicated.
The less toxic product mixtures were further examined. These sample mixtures after simple filtration through silica gel were submitted to analysis with ESI-MS. […] Among them, 4-benzyl benzoic acid derived amide product showing the most significant signals was resynthesized in both its ceramidic form 18 and galactosyl ceramidic form 19 (Scheme 6). The subsequent validation experiment was performed by MTT assay and flowcytotmetry (FIG. 4). […] This confirmed the important role played by sugar moieties.

Structure (SMILES): CCCCCCCCCCCCCC[C@@H](O)[C@@H](O)[C@H](CO[C@H]1O[C@H](CNC(=O)c2ccc(CCCC)cc2)[C@H](O)[C@H](O)[C@H]1O)NC(=O)c1ccc(CCCC)cc1 [analog 19, 4-butyl-N-(((2R,3R,4S,5R,6S)-6-(((2S,3S,4R)-2-(4-butylbenzamido)-3,4-dihydroxyoctadecyl)oxy)-3,4,5-trihydroxytetrahydro-2H-pyran-2-yl)methyl)benzamide]
- stimulation of Vα24+/Vβ11+ iNKT cell population: stimulats human iNKT cell population; also recorded: stimulative
